# Values of other authors as cited in US8168241B2, “Performance-enhancing dietary supplement” (Reliv International, Inc., priority 1998, dated 2012).
# Tests used:
# [1] = resulting from the ingestion of CLA
# [2] = co-administration of piper nigrum extract; double blind studies
Compound,reduction in body fat [1],bioavailability [2]
conjugated linoleic acid [CLA],≤ 20%,–
COC1=C(OC)C(=O)C(C/C=C(\C)CC/C=C(\C)CC/C=C(\C)CC/C=C(\C)CC/C=C(\C)CC/C=C(\C)CC/C=C(\C)CC/C=C(\C)CC/C=C(\C)CCC=C(C)C)=C(C)C1=O [coenzyme Q10],–,significantly increased
